Experimental data as given in US20250009742A1 (priority 2021, published 2025).

What was measured:
[1] = Cell viability assay (EZ-Cytox), cytotoxicity; assay type: cell-based; settings: human, HepAD38 cells; for viability at 65 h, 100 µM: read-out: Cytotoxicity % Livability (@100 μM)
Method: HepAD38 cells were cultured for 2 days in Dulbecco's Modified Eagle's medium (Welgene, LM001-05) supplemented with 10% FBS without tetracycline. […] After 65 hours of treatment, viability was measured using EZ-Cytox cell viability assay kit (Daeil Lab Service) according to the manufacturer's instructions. The absorbance was measured at 450 nm using a spectrophotometer (Spark, Tecan).

[2] = test system: intracellular HBV DNA; test: Real-time PCR for intracellular HBV DNA in HepAD38 cells; assay type: cell-based; settings: Hepatitis B virus, HePAD38, 65 h, 65 hours treatment

| Structure (SMILES) | CC50 at 65 h [1] [nM] | viability at 65 h, 100 µM [1] [%] | IC50 [2] [nM] |
| --- | --- | --- | --- |
| COc1cc(N(Cc2cc(C(F)F)[nH]n2)C(=O)Nc2ccc(F)c(C(F)F)c2)cnn1 [Example 201, 1-((5-(difluoromethyl)-1H-pyrazol-3-yl)methyl)-3-(3-(difluoromethyl)-4-fluorophenyl)-1-(6-methoxypyridazin-4-yl)urea] | > 100000 | 107 | 28 |
| COc1ncc(N(Cc2cc(C(F)(F)F)[nH]n2)C(=O)Nc2cncc(C(F)F)c2)cn1 [Example 174, 3-(5-(difluoromethyl)pyridin-3-yl)-1-(2-methoxypyrimidin-5-yl)-1-((5-(trifluoromethyl)-1H-pyrazol-3-yl)methyl)urea] | > 100000 | 96.2 | 480 |
| COc1ncc(N(Cc2n[nH]c(C(F)(F)F)c2CCO)C(=O)Nc2ccc(F)c(C(F)F)c2)cn1 [Example 193, 3-(3-(difluoromethyl)-4-fluorophenyl)-1-((4-(2-hydroxyethyl)-5-(trifluoromethyl)-1H-pyrazol-3-yl)methyl)-1-(2-methoxypyrimidin-5-yl)urea] | > 100000 |  | 180 |
| COc1ccc(N(Cc2cc(C(F)F)[nH]n2)C(=O)Nc2ccc(F)c(C(F)F)c2)nn1 [Example 195, 1-((5-(difluoromethyl)-1H-pyrazol-3-yl)methyl)-3-(3-(difluoromethyl)-4-fluorophenyl)-1-(6-methoxypyridazin-3-yl)urea] | > 100000 | 100 | > 1100 |
| COc1ncc(N(Cc2cc(C(F)(F)F)[nH]n2)C(=O)Nc2cccc(C(F)F)c2)cn1 [Example 176, 3-(3-(difluoromethyl)phenyl)-1-(2-methoxypyrimidin-5-yl)-1-((5-(trifluoromethyl)-1H-pyrazol-3-yl)methyl)urea] | > 100000 | 53.5 | 36 |
| Cc1cc(N(Cc2n[nH]c3c2CCCO3)C(=O)Nc2ccc(F)c(Cl)c2)no1 [Example 26, 3-(3-chloro-4-fluorophenyl)-1-(5-methylisoxazol-3-yl)-1-((1,4,5,6-tetrahydropyrano[2,3-c]pyrazol-3-yl)methyl)urea] | > 100000 | 93 | > 1100 |
| CC(C)(O)c1cc(N(Cc2n[nH]c3c2CCCO3)C(=O)Nc2ccc(F)c(Cl)c2)on1 [Example 109, 3-(3-chloro-4-fluorophenyl)-1-(3-(2-hydroxypropan-2-yl)isoxazol-5-yl)-1-((1,4,5,6-tetrahydropyrano[2,3-c]pyrazol-3-yl)methyl)urea] | > 100000 | 82 | 150 |
| COc1ncc(N(Cc2cc(C(F)(F)F)[nH]n2)C(=O)Nc2cc(C(F)F)c(F)cn2)cn1 [Example 192, 3-(4-(difluoromethyl)-5-fluoropyridin-2-yl)-1-(2-methoxypyrimidin-5-yl)-1-((5-(trifluoromethyl)-1H-pyrazol-3-yl)methyl)urea] | > 100000 | 104 | 59 |
| COc1ccc(N(Cc2nn(CCO)c3c2CCC3)C(=O)Nc2ccc(F)c(Cl)c2)cn1 [Example 67, 3-(3-chloro-4-fluorophenyl)-1-((1-(2-hydroxyethyl)-1,4,5,6-tetrahydrocyclopenta[c]pyrazol-3-yl)methyl)-1-(6-methoxypyridin-3-yl)urea] | > 100000 |  | > 300 |
| CC(C)(O)c1ccc(N(Cc2n[nH]c3c2CCOC3)C(=O)Nc2ccc(F)c(Cl)c2)cn1 [Example 111, 3-(3-chloro-4-fluorophenyl)-1-(6-(2-hydroxypropan-2-yl)pyridin-3-yl)-1-((1,4,5,7-tetrahydropyrano[3,4-c]pyrazol-3-yl)methyl)urea] | > 100000 |  | > 1100 |
| CC(C)(O)c1ccc(N(Cc2n[nH]c3c2CCCO3)C(=O)Nc2ccc(F)c(Cl)c2)cn1 [Example 110, 3-(3-chloro-4-fluorophenyl)-1-(6-(2-hydroxypropan-2-yl)pyridin-3-yl)-1-((1,4,5,6-tetrahydropyrano[2,3-c]pyrazol-3-yl)methyl)urea] | > 100000 |  | > 1100 |
| COc1ncc(N(Cc2cc(C(F)(F)F)[nH]n2)C(=O)Nc2cnc(F)nc2)cn1 [Example 186, 3-(2-fluoropyrimidin-5-yl)-1-(2-methoxypyrimidin-5-yl)-1-((5-(trifluoromethyl)-1H-pyrazol-3-yl)methyl)urea] | > 100000 | 86.4 | > 1100 |
| COc1ncc(N(Cc2cc(C(F)(F)F)[nH]n2)C(=O)Nc2ccc(F)c(Cl)c2)cc1C#N [Example 119, 3-(3-chloro-4-fluorophenyl)-1-(5-cyano-6-methoxypyridin-3-yl)-1-((5-(trifluoromethyl)-1H-pyrazol-3-yl)methyl)urea] | < 50000 | 18.8 | 320 |
| COC12CC(N(Cc3cc(C(F)(F)F)[nH]n3)C(=O)Nc3cc(F)c(F)c(F)c3)(C1)C2 [Example 222, 1-(3-methoxybicyclo[1.1.1]pentan-1-yl)-1-((5-(trifluoromethyl)-1H-pyrazol-3-yl)methyl)-3-(3,4,5-trifluorophenyl)urea] | 31700 | 2.5 | 120 |
| COc1cc(N(Cc2cc(C(F)(F)F)[nH]n2)C(=O)Nc2ccc(F)c(Cl)c2)ccn1 [Example 74, 3-(3-chloro-4-fluorophenyl)-1-(2-methoxypyridin-4-yl)-1-((5-(trifluoromethyl)-1H-pyrazol-3-yl)methyl)urea] | > 100000 | 55.6 | 22 |
| COc1ccc(N(Cc2nn(C)c3c2COCC3)C(=O)Nc2ccc(F)c(Cl)c2)cc1 [Example 39, 3-(3-chloro-4-fluorophenyl)-1-(4-methoxyphenyl)-1-((1-methyl-1,4,6,7-tetrahydropyrano[4,3-c]pyrazol-3-yl)methyl)urea] | > 100000 | 96 | 330 |
| CC(C)(O)c1cc(N(Cc2n[nH]c3c2CCOC3)C(=O)Nc2ccc(F)c(Cl)c2)on1 [Example 115, 3-(3-chloro-4-fluorophenyl)-1-(3-(2-hydroxypropan-2-yl)isoxazol-5-yl)-1-((1,4,5,7-tetrahydropyrano[3,4-c]pyrazol-3-yl)methyl)urea] | > 100000 | 84.1 | > 1100 |
| COc1ncc(N(Cc2cc(C(F)(F)F)[nH]n2)C(=O)Nc2cc(C)c(F)c(Cl)n2)cn1 [Example 142, 3-(6-chloro-5-fluoro-4-methylpyridin-2-yl)-1-(2-methoxypyrimidin-5-yl)-1-((5-(trifluoromethyl)-1H-pyrazol-3-yl)methyl)urea] | 46900 | 21 | 100 |
| COc1ccc(N(Cc2n[nH]c3c2COCC3)C(=O)Nc2ccc(F)c(Cl)c2)cn1 [Example 55, 3-(3-chloro-4-fluorophenyl)-1-(6-methoxypyridin-3-yl)-1-((1,4,6,7-tetrahydropyrano[4,3-c]pyrazol-3-yl)methyl)urea] | > 100000 | 102 | 17 |
| COc1cc(N(Cc2n[nH]c3c2COCC3)C(=O)Nc2ccc(F)c(Cl)c2)ccn1 [Example 73, 3-(3-chloro-4-fluorophenyl)-1-(2-methoxypyridin-4-yl)-1-((1,4,6,7-tetrahydropyrano[4,3-c]pyrazol-3-yl)methyl)urea] | > 100000 | 96.6 | 19 |
| COC12CC(N(Cc3cc(C(F)(F)F)[nH]n3)C(=O)Nc3ccc(F)c(Cl)c3)(C1)C2 [Example 105, 3-(3-chloro-4-fluorophenyl)-1-(3-methoxybicyclo[1.1.1]pentan-1-yl)-1-((5-(trifluoromethyl)-1H-pyrazol-3-yl)methyl)urea] | 55800 | 3.5 | 34 |
| COc1ncc(N(Cc2cc(C(F)(F)F)[nH]n2)C(=O)Nc2ccnc(C#N)c2)cn1 [Example 146, 3-(2-cyanopyridin-4-yl)-1-(2-methoxypyrimidin-5-yl)-1-((5-(trifluoromethyl)-1H-pyrazol-3-yl)methyl)urea] | > 100000 | 112 | 120 |
| N#Cc1cc(N(Cc2n[nH]c3c2CCOC3)C(=O)Nc2ccc(F)c(Cl)c2)ccn1 [Example 128, 3-(3-chloro-4-fluorophenyl)-1-(2-cyanopyridin-4-yl)-1-((1,4,5,7-tetrahydropyrano[3,4-c]pyrazol-3-yl)methyl)urea] | > 100000 | 65.9 | 340 |
| COc1ncc(N(Cc2cc(C(F)F)[nH]n2)C(=O)Nc2ccc(F)c(C#N)c2)cn1 [Example 155, 3-(3-cyano-4-fluorophenyl)-1-((5-(difluoromethyl)-1H-pyrazol-3-yl)methyl)-1-(2-methoxypyrimidin-5-yl)urea] | > 100000 | 97 | 35 |
| COc1ncc(N(Cc2cc(C(F)(F)F)[nH]n2)C(=O)Nc2cc(F)c(F)cn2)cn1 [Example 172, 3-(4,5-difluoropyridin-2-yl)-1-(2-methoxypyrimidin-5-yl)-1-((5-(trifluoromethyl)-1H-pyrazol-3-yl)methyl)urea] | > 100000 |  | 240 |
| N#Cc1cncc(N(Cc2n[nH]c3c2CCCO3)C(=O)Nc2ccc(F)c(Cl)c2)c1 [Example 120, 3-(3-chloro-4-fluorophenyl)-1-(5-cyanopyridin-3-yl)-1-((1,4,5,6-tetrahydropyrano[2,3-c]pyrazol-3-yl)methyl)urea] | > 100000 | 92 | 95 |
| CCOC=Cc1c(CN(C(=O)Nc2ccc(F)c(Cl)c2)c2ccc(OC)nc2)n[nH]c1C(F)(F)F [Example 83, 3-(3-chloro-4-fluorophenyl)-1-((4-(2-ethoxyvinyl)-5-(trifluoromethyl)-1H-pyrazol-3-yl)methyl)-1-(6-methoxypyridin-3-yl)urea] | > 100000 | 95.1 | > 1100 |
